Measurements published in ChEMBL document CHEMBL3525953, “In vitro cytochrome P450-mediated metabolism of exemestane” (Drug Metab Dispos, 2011).

Experiments:
Assay type in all cases: ADME
Cytochrome P450 3A4 = Cytochrome P450 3A4 (Homo sapiens, UniProt P08684); assay: Drug metabolism assessed as human recombinant CYP3A4-mediated 6-Hydroxymethylexemestane formation rate per pmol of enzyme at 10 uM after 10 mins
Cytochrome P450 2C8 [1] = target: T1, Cytochrome P450 2C8 (Homo sapiens, UniProt P10632); assay: Drug metabolism assessed as human recombinant CYP2C8-mediated 6-Hydroxymethylexemestane formation at 10 uM after 10 mins by Michaelis-Menten saturation curve analysis; conditions: recombinant enzyme
T1 sequence (P10632 whole entry): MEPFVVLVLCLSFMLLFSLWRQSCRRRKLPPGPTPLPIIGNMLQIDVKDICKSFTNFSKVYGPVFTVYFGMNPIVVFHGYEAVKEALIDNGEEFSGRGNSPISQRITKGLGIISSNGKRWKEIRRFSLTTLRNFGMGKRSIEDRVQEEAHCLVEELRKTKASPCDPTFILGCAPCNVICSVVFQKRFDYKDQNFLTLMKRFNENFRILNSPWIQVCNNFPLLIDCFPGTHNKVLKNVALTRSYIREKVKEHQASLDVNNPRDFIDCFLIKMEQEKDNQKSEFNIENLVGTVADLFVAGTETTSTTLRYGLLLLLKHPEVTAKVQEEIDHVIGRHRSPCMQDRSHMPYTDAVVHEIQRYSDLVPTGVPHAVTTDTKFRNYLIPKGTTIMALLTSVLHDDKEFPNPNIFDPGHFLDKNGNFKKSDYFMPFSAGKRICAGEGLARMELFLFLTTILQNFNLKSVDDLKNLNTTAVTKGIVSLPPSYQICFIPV

Cytochrome P450 2C8 [2] = target: T1, Cytochrome P450 2C8; assay: Drug metabolism assessed as human recombinant CYP2C8-mediated 6-Hydroxymethylexemestane formation rate per pmol of enzyme at 10 uM after 10 mins
Liver microsome [3] = assay: Drug metabolism in human liver microsomes assessed as 6-hydroxymethylexemestane formation at 10 uM after 10 mins by LC-MS/MS analysis
Cytochrome P450 2C19 [4] = target: T2, Cytochrome P450 2C19 (Homo sapiens, UniProt P33261); assay: Drug metabolism assessed as human recombinant CYP2C19-mediated 6-Hydroxymethylexemestane formation rate per pmol of enzyme at 10 uM after 10 mins
Cytochrome P450 2C9 [5] = target: T3, Cytochrome P450 2C9 (Homo sapiens, UniProt P11712); assay: Drug metabolism assessed as human recombinant CYP2C9-mediated 6-Hydroxymethylexemestane formation rate per pmol of enzyme at 10 uM after 10 mins
Cytochrome P450 2B6 [6] = target: T4, Cytochrome P450 2B6 (Homo sapiens, UniProt P20813); assay: Drug metabolism assessed as human recombinant CYP2B6-mediated 6-Hydroxymethylexemestane formation rate per pmol of enzyme at 10 uM after 10 mins
T4 sequence (P20813 whole entry): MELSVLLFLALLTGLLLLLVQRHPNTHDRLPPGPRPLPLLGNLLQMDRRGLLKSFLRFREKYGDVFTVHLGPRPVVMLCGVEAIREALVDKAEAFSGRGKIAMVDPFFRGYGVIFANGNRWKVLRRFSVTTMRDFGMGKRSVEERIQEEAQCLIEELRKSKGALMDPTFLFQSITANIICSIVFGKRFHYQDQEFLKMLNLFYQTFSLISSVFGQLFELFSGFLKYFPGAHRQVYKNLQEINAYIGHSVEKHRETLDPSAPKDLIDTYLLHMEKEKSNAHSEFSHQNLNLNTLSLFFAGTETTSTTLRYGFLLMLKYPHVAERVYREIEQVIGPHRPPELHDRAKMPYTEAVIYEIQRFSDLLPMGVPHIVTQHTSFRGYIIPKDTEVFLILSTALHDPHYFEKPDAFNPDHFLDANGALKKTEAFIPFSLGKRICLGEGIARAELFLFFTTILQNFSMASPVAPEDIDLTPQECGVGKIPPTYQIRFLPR

Cytochrome P450 1A1 = target: T5, Cytochrome P450 1A1 (Homo sapiens, UniProt P04798); assay: Drug metabolism assessed as human recombinant CYP1A1-mediated 6-Hydroxymethylexemestane formation rate per pmol of enzyme at 10 uM after 10 mins
T5 sequence (P04798 whole entry): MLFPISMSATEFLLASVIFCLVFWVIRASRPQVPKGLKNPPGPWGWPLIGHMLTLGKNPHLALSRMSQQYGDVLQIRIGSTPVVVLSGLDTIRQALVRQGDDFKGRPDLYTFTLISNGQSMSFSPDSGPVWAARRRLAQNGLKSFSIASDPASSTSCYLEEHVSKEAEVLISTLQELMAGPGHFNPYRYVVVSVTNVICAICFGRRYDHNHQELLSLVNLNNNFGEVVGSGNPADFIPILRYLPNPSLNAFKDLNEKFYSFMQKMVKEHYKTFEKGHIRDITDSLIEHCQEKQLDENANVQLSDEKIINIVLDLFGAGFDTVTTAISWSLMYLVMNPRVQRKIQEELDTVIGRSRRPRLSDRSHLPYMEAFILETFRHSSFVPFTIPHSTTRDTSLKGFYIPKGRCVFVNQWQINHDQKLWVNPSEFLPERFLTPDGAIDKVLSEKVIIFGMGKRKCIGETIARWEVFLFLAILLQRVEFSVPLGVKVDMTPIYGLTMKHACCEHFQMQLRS

Cytochrome P450 3A5 = Cytochrome P450 3A5 (Homo sapiens, UniProt P20815); assay: Drug metabolism assessed as human recombinant CYP3A5-mediated 6-Hydroxymethylexemestane formation rate per pmol of enzyme at 10 uM after 10 mins
Liver microsome [7] = assay: Drug metabolism in human liver microsomes assessed as retention time treated with 300 uM of exemestane after 10 mins by HPLC with UV analysis
Cytochrome P450 2C9 [8] = target: T3, Cytochrome P450 2C9; assay: Drug metabolism assessed as human recombinant CYP2C9-mediated 6-Hydroxymethylexemestane formation at 10 uM after 10 mins by Michaelis-Menten saturation curve analysis; conditions: recombinant enzyme
Cytochrome P450 2C19 [9] = target: T2, Cytochrome P450 2C19; assay: Drug metabolism assessed as human recombinant CYP2C19-mediated 6-Hydroxymethylexemestane formation at 10 uM after 10 mins by Michaelis-Menten saturation curve analysis; conditions: recombinant enzyme
Liver microsome [10] = assay: Drug metabolism in human liver microsomes assessed as 6-hydroxymethylexemestane formation after 10 mins by Michaelis-Menten saturation curve analysis
Cytochrome P450 2B6 [11] = target: T4, Cytochrome P450 2B6; assay: Drug metabolism assessed as human recombinant CYP2B6-mediated 6-Hydroxymethylexemestane formation at 10 uM after 10 mins by Michaelis-Menten saturation curve analysis; conditions: recombinant enzyme
Cytochrome P450 2B6 [12] = target: T4, Cytochrome P450 2B6; assay: Drug metabolism assessed as human recombinant CYP2B6-mediated 17-hydroexemestane and 6-Hydroxymethylexemestane formation assessed as inhibition of metabolite formation at 10 uM after 10 mins by Michaelis-Menten saturation curve analysis in presence of 5 uM thioTEPA; design: interact cpd dose 5 uM; conditions: recombinant enzyme
Liver microsome [13] = assay: Drug metabolism in human liver microsomes assessed as retention time at 300 uM after 10 mins by HPLC with UV analysis
Cytochrome P450 2E1 = Cytochrome P450 2E1 (Homo sapiens, UniProt P05181); assay: Drug metabolism assessed as human recombinant CYP2E1-mediated 17-hydroexemestane and 6-Hydroxymethylexemestane formation assessed as inhibition of metabolite formation at 10 uM after 10 mins by Michaelis-Menten saturation curve analysis in presence of 50 uM diethylthiocarbamate; design: interact cpd dose 50 uM; conditions: recombinant enzyme
Liver microsome [14] = assay: Drug metabolism in human liver microsomes assessed as retention time at 50 uM after 10 mins by HPLC with UV analysis

T3 sequence (P11712 whole entry): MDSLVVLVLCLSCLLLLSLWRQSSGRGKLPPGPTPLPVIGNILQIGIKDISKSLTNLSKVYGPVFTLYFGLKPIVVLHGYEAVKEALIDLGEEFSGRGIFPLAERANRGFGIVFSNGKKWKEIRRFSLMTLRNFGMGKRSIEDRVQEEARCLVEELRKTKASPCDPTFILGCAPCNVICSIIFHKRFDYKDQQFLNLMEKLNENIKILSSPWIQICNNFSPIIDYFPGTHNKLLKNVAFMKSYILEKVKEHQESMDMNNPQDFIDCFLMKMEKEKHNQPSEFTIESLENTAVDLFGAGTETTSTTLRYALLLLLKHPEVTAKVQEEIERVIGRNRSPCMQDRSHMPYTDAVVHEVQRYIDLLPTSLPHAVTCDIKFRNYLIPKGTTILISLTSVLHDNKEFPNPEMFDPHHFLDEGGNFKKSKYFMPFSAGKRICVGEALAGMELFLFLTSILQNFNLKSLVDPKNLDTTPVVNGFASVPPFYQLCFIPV
T2 sequence (P33261 whole entry): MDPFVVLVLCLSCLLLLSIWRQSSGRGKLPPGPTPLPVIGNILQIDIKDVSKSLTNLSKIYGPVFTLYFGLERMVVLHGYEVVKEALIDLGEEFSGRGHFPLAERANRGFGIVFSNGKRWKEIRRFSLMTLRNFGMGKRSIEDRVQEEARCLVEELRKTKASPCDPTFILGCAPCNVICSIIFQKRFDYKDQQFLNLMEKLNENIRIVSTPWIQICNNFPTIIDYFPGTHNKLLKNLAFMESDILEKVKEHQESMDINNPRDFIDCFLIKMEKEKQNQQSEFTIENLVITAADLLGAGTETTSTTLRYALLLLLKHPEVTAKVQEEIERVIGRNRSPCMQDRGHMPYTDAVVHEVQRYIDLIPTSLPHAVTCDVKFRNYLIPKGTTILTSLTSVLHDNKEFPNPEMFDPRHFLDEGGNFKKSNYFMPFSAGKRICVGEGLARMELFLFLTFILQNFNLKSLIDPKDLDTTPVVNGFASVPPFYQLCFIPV
Sequence of Cytochrome P450 3A5 (P20815 whole entry): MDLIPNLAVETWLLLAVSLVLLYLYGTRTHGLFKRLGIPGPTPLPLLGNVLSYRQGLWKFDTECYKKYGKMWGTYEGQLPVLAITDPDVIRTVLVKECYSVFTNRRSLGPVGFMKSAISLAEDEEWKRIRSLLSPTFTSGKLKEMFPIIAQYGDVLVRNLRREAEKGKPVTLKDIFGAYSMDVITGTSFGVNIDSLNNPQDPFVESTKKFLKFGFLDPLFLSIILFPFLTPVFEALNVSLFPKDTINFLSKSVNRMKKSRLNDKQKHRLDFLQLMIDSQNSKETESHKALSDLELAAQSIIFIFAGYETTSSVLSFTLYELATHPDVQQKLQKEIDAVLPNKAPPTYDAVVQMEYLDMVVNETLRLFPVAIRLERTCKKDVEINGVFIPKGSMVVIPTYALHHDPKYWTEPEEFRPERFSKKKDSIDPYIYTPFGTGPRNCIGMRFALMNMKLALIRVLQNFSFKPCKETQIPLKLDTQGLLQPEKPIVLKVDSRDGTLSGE
Sequence of Cytochrome P450 3A4 (P08684 whole entry): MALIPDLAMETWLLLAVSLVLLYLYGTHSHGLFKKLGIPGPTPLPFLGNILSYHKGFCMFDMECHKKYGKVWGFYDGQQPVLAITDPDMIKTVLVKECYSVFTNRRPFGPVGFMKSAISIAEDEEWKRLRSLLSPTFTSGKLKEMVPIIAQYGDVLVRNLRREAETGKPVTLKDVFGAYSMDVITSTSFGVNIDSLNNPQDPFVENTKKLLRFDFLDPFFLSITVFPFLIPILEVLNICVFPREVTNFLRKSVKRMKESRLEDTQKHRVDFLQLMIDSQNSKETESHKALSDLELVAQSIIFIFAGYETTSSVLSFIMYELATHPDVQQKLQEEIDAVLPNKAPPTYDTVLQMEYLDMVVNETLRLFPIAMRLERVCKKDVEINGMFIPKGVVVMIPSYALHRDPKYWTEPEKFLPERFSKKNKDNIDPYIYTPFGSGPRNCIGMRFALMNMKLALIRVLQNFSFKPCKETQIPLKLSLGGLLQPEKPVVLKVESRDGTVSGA
Sequence of Cytochrome P450 2E1 (P05181 whole entry): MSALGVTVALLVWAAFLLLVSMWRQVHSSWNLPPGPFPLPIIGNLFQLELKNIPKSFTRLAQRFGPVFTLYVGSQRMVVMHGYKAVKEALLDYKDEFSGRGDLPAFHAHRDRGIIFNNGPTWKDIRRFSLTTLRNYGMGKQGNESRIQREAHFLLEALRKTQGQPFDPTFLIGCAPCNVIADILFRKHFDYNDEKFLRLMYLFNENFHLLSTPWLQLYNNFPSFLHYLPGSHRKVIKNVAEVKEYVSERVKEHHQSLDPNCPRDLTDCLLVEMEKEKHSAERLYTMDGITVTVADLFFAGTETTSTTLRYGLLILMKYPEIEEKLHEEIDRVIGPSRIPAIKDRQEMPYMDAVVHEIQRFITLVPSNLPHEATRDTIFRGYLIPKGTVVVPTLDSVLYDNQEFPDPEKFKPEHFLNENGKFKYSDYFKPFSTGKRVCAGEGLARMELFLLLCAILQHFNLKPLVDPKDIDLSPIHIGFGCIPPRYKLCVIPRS

Q: With `C[C@]12C=CC(=O)C=C1C(CO)=C[C@@H]1[C@@H]2CC[C@]2(C)C(=O)CC[C@@H]12` as the molecule, how does the Drug metabolism (Cytochrome P450 3A4) read?
A: 0.42 pmol/min

Q: What about the Drug metabolism (Cytochrome P450 2C8 [1]) of the same molecule?
A: metabolite_detected

Q: And the Drug metabolism (Cytochrome P450 2C8 [2])?
A: metabolite_detected

Q: And the “Vmax(app)” value (Liver microsome [3])?
A: 200.47 pmol/mg/min

Q: And the Drug metabolism (Cytochrome P450 2C19 [4])?
A: metabolite_detected

Q: And the Drug metabolism (Cytochrome P450 2C9 [5])?
A: metabolite_detected

Q: What about the Drug metabolism (Cytochrome P450 2B6 [6]) of the same molecule?
A: 0.1 pmol/min

Q: What about the Drug metabolism (Cytochrome P450 1A1) of the same molecule?
A: metabolite_detected

Q: What about the Drug metabolism (Cytochrome P450 3A5) of the same molecule?
A: 0.3 pmol/min

Q: And the Retention_time (Liver microsome [7])?
A: 6.4 min

Q: What about the Drug metabolism (Cytochrome P450 2C9 [8]) of the same molecule?
A: metabolite_detected

Q: And the Drug metabolism (Cytochrome P450 2C19 [9])?
A: metabolite_detected

Q: And the “Vmax(app)” value (Liver microsome [10])?
A: 781.15 pmol/mg/min

Q: What about the Km (Liver microsome [10]; read-out: Km(app)) of the same molecule?
A: 37.1 µM

Q: What about the “Vmax(app)” value (Cytochrome P450 2B6 [11]) of the same molecule?
A: 1.93 pmol/mg/min

Q: And the Km (Cytochrome P450 2B6 [11]; read-out: Km(app))?
A: 9 µM

Q: What does the source list for `C=C1C[C@@H]2[C@H](CC[C@]3(C)C(=O)CC[C@@H]23)[C@@]2(C)C=CC(=O)C=C12` [EXEMESTANE]?
A: inhibition (INH) (Cytochrome P450 2B6 [12]): < 20%; Retention_time (Liver microsome [13]): 15.6 min; inhibition (INH) (Cytochrome P450 2E1): < 20%

Q: How did the Retention_time (Liver microsome [14]) turn out when `C#CC1(O)CC[C@H]2[C@@H]3CCC4=CC(=O)CC[C@@H]4[C@H]3CC[C@@]21CC` (stereo not given in full) [NORGESTREL] was run?
A: 20.2 min
